Literature values, collected in patent US20230285483A1, “TINCTURE CONTAINING CANNABINOIDS, METHOD OF USING, AND METHOD OF MAKING THE SAME” (priority 2022, published 2023).

Legend:
coronavirus = conditions: study by researchers at Oregon State University
[1] = molecular target: spike proteins found on the virus (Severe acute respiratory syndrome coronavirus 2, UniProt P0DTC2); conditions: study by researchers at Oregon State University

| Compound | blocking of a step the pathogen uses to infect people (coronavirus) | binding to spike proteins found on the virus [1] |
| --- | --- | --- |
| CCCCCc1cc(O)c(C/C=C(\C)CCC=C(C)C)c(O)c1C(=O)O [CBGa, cannabigerolic acid] | blocked a step the pathogen uses to infect people | bind to spike proteins |
| C=C(C)[C@@H]1CCC(C)=C[C@H]1c1c(O)cc(CCCCC)c(C(=O)O)c1O [CBDa, cannabidiolic acid] | blocked a step the pathogen uses to infect people | bind to spike proteins |
